Experimental data taken from patent publication US8084649B2, “Herbicides” (Syngenta Crop Protection, inc., priority 2007, dated 2011).

Columns and labels:
Format in all cases: in vivo
Lolium perenne (LOLPE) [1] = assay: Pre-emergence herbicidal activity, glasshouse pot test; details: Lolium perenne, 480 h, rate 500 g/ha, evaluated after 20 days, read-out: Pre-emergence activity, LOLPE (100=total damage to plant; 0=no damage to plant)
Procedure: (§1) Monocotyledonous and dicotyledonous test plants were sown in sterilised standard soil in pots. After cultivation for one day (pre-emergence) or after 10 days cultivation (post-emergence) under controlled conditions in a glasshouse, the plants were sprayed with an aqueous spray solution derived from the formulation of the technical active ingredient in 0.6 ml acetone and 45 ml formulation solution containing 10.6% Emulsogen EL (Registry number 61791-12-6), 42.2% N-methylpyrrolidone, 42.2% dipropylene glycol monomethyl ether (Registry number 34590-94-8) and 0.2% X-77 (Registry number 11097-66-8). The test plants were then grown in a greenhouse under optimum conditions until, 14 or 15 days later for post-emergence and 20 days for pre-emergence, the test was evaluated (100=total damage to plant; 0=no damage to plant). Alopecurus myosuroides (ALOMY), Avena fatua (AVEFA), Lolium perenne (LOLPE), Setaria faberi (SETFA), Digitaria sanguinalis (DIGSA), Echinochloa crus-galli (ECHCG) Pre-Emergence Activity

[2] = system: Echinochloa crus-galli (ECHCG); assay: as above; details: Echinochloa crus-galli, 480 h, rate 500 g/ha, evaluated after 20 days, read-out: Pre-emergence activity, ECHCG (100=total damage to plant; 0=no damage to plant)
Procedure: as §1

Setaria faberi (SETFA) [3] = assay: as above; details: Setaria faberi, 480 h, rate 500 g/ha, evaluated after 20 days, read-out: Pre-emergence activity, SETFA (100=total damage to plant; 0=no damage to plant)
Procedure: as §1

[4] = system: Alopecurus myosuroides (ALOMY); assay: as above; details: Alopecurus myosuroides, 480 h, rate 500 g/ha, evaluated after 20 days, read-out: Pre-emergence activity, ALOMY (100=total damage to plant; 0=no damage to plant)
Procedure: as §1

Avena fatua (AVEFA) [5] = assay: as above; details: Avena fatua, 480 h, rate 500 g/ha, evaluated after 20 days, read-out: Pre-emergence activity, AVEFA (100=total damage to plant; 0=no damage to plant)
Procedure: as §1

[6] = system: Digitaria sanguinalis (DIGSA); assay: as above; details: Digitaria sanguinalis, 480 h, rate 500 g/ha, evaluated after 20 days, read-out: Pre-emergence activity, DIGSA (100=total damage to plant; 0=no damage to plant)
Procedure: as §1

Lolium perenne (LOLPE) [7] = assay: Post-emergence herbicidal activity, glasshouse pot test; details: Lolium perenne, rate 125 g/ha, evaluated after 14 or 15 days, read-out: Post-emergence activity, LOLPE (100=total damage to plant; 0=no damage to plant)
Procedure: as §1, with “Post-Emergence” for “Pre-Emergence”

Setaria faberi (SETFA) [8] = assay: as above; details: Setaria faberi, rate 125 g/ha, evaluated after 14 or 15 days, read-out: Post-emergence activity, SETFA (100=total damage to plant; 0=no damage to plant)
Procedure: as §1, with “Post-Emergence” for “Pre-Emergence”

[9] = system: Alopecurus myosuroides (ALOMY); assay: as above; details: Alopecurus myosuroides, rate 125 g/ha, evaluated after 14 or 15 days, read-out: Post-emergence activity, ALOMY (100=total damage to plant; 0=no damage to plant)
Procedure: as §1, with “Post-Emergence” for “Pre-Emergence”

Avena fatua (AVEFA) [10] = assay: as above; details: Avena fatua, rate 125 g/ha, evaluated after 14 or 15 days, read-out: Post-emergence activity, AVEFA (100=total damage to plant; 0=no damage to plant)
Procedure: as §1, with “Post-Emergence” for “Pre-Emergence”

[11] = system: Digitaria sanguinalis (DIGSA); assay: as above; details: Digitaria sanguinalis, rate 125 g/ha, evaluated after 14 or 15 days, read-out: Post-emergence activity, DIGSA (100=total damage to plant; 0=no damage to plant)
Procedure: as §1, with “Post-Emergence” for “Pre-Emergence”

| SMILES | pest or weed control at 500 g/ha (Lolium perenne (LOLPE) [1]) [%] | pest or weed control at 500 g/ha [2] [%] | pest or weed control at 500 g/ha (Setaria faberi (SETFA) [3]) [%] | pest or weed control at 500 g/ha [4] [%] | pest or weed control at 500 g/ha (Avena fatua (AVEFA) [5]) [%] | pest or weed control at 500 g/ha [6] [%] | pest or weed control at 125 g/ha (Lolium perenne (LOLPE) [7]) [%] | pest or weed control at 125 g/ha (Setaria faberi (SETFA) [8]) [%] | pest or weed control at 125 g/ha [9] [%] | pest or weed control at 125 g/ha (Avena fatua (AVEFA) [10]) [%] | pest or weed control at 125 g/ha [11] [%] |
| --- | --- | --- | --- | --- | --- | --- | --- | --- | --- | --- | --- |
| CCC(=O)OC1=C(c2c(CC)cc(C)cc2CC)C(=O)CC2(CCOCC2)C1 [Compound P2] | 100 | 100 | 100 | 100 | 100 | 100 | 80 | 70 | 80 | 90 | 100 |
| CCc1cc(C)cc(CC)c1C1=C(OC(=O)CC(C)(C)C)CC2(CCOCC2)CC1=O [Compound P6] | 100 | 70 | 70 | 100 | 90 | 100 | 10 | 0 | 60 | 80 | 30 |
| CCCCCCC(=O)OC1=C(c2c(CC)cc(C)cc2CC)C(=O)CC2(CCOCC2)C1 [Compound P10] | 100 | 100 | 100 | 100 | 100 | 100 | 90 | 70 | 100 | 100 | 80 |
| CCCC(CC)C(=O)OC1=C(c2c(CC)cc(C)cc2CC)C(=O)CC2(CCOCC2)C1 (stereo not drawn) [Compound P15] | 100 | 60 | 70 | 0 | 90 | 90 | 0 | 40 | 10 | 70 | 70 |
| CCc1cc(C)cc(CC)c1C1=C(OS(=O)(=O)CC)CC2(CCOCC2)CC1=O [Compound P28] | 80 | 10 | 70 | 80 | 30 | 70 | 0 | 0 | 0 | 10 | 10 |
| C#CCOC1=C(c2c(CC)cc(C)cc2CC)C(=O)CC2(CCOCC2)C1 [Compound P31, 9-(2,6-diethyl-4-methylphenyl)-10-prop-2-ynyloxy-3-oxaspiro[5.5]undec-9-en-8-one] | 100 | 100 | 90 | 100 | 100 | 100 | 50 | 60 | 70 | 70 | 20 |
